According to patent US7439245B2, “Compounds” (Glaxo Group Limited, priority 2003, dated 2008):

Target: T1, human cloned 5-HT6 receptors (Homo sapiens, UniProt P50406)
T1 construct: expressed in transfected cells
Experiment: 5-HT6 receptor affinity (procedures outlined in WO98/27081)
Assay type: binding
Settings: read-out: pKi values at human cloned 5-HT6 receptors (converted)
Text: Compounds can be tested following the procedures outlined in WO98/27081.

T1 sequence (P50406 whole entry): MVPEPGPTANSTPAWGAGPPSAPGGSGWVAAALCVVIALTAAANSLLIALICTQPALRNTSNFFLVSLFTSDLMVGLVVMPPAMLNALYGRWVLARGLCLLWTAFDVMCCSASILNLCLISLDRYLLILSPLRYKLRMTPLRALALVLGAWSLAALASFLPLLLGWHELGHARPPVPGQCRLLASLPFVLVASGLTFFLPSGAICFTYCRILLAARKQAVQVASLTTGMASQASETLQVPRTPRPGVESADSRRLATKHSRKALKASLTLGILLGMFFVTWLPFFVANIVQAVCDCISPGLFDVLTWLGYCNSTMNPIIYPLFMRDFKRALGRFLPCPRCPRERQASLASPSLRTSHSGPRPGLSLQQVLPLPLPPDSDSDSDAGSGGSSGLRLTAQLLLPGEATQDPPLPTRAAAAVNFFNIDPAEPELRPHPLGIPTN

Row | Compound | Ki [nM]
1 | O=S(=O)(c1ccccc1)c1cccc(N2CCNCC2)c1 [Example E1, 1-(3-Phenylsulfonyl-phenyl)piperazine] | < 10
2 | O=S(=O)(c1ccccc1)c1cccc(N2CCNCC2)c1Cl [Example E2, 1-(3-Phenylsulfonyl-2-chlorophenyl)piperazine] | < 10
